From US20090082408A1, “NOVEL HETEROCYCLIC DERIVATIVES” (priority 2005, published 2009) come the findings set out here.

The structures appear in SMILES notation. Structures can show the parent of a compound that is named as a salt.

Experiment [1] deals with 3T3-L1 cells. Put plainly: Glucose uptake assay using 3T3-L1 cells. The note with it: 14C deoxyglucose uptake in differentiated 3T3-L1 adipocytes; 1 μM for 72 hours; relative to reference compound BLX-1002. In kind it is cell-based. How it is done:
Glucose Uptake Assay Using 3T3-L1 Cells
3T3-L1 cells were differentiated by the addition of differentiation cocktail (72 μg/ml insulin, 0.5 mM IBMX, 400 ng/ml Dexamethasone) for 4 days and were later fed with media without the differentation cocktail for 7-8 days. After differentiation the cells were incubated with the either the reference compound BLX-1002 or with the compounds listed in the table 1 at 1 μM concentrations for 72 hours, and the glucose uptake assay was carried out for 10 minutes by the addition of KRP buffer supplemented with 2.5 μCi/ml ^14C deoxy glucose. Stimulation Index is defined as the amount of ^14C Deoxyglucose uptake induced by 1 μM of BLX-1002 incubated for 72 hours in an assay condition as per the protocol described above with differentiated 3T3-L1 adipocytes. The values for compounds mentioned in table-1 are with reference to the stimulation index of reference compound BLX-1002.

In experiment [2] the test system is streptozotocin induced diabetic mice. In words: Antidiabetic activity in streptozotocin induced diabetic mice. The experiment is classed as in vivo. As to conditions: 50 mg/kg body weight, oral route, 7 days, female Swiss albino mice, fasted 6 hours. How it is done: Antidiabetic Activity in Streptozotocin Induced Diabetic Mice
Female Swiss albino mice, at the age of 10 weeks were used in the study. Diabetes was induced in the animals by injecting streptozotocin by i.p. route at a dose of 200 mg/kg body weight. 48 hours after streptozotocin administration, the animals were kept fasting for 6 hours. Subsequently blood was collected, plasma separated and the glucose was estimated. Animals showing greater than 200 mg/dl glucose levels were considered as diabetic and these animals were randomly distributed into various groups. The example 2 listed in the table 2 was administered at a dose of 50-mg/kg body weight by oral route for 7 days. Later the animals were fasted for 6 hours, the blood was collected and the plasma was separated. Biochemical estimations like glucose, cholesterol and triglycerides were carried out using the plasma. The effect of the compounds mentioned in the table was expressed in terms of percentage reduction in biochemical values as compared to the control group.

`COC(=O)C(N)Cc1ccc(Oc2ccc(Nc3ccccn3)cc2)cc1` (stereo not drawn) [Example 1, Methyl-2-amino-3-{4-[4-(pyridin-2-ylamino)phenoxy]phenyl}propionate dihydrochloride]: in experiment [1], the “Stimulation Index” value was found to be 1.10.
As to `COC(=O)[C@@H](N)Cc1ccc(Oc2ccc(Nc3ccccn3)cc2)cc1` [Example 2, Methyl (2S)-2-amino-3-{4-[4-(pyridin-2-ylamino)phenoxy]phenyl}propanoate dihydrochloride], in experiment [2] (plasma glucose vs control group), the “% Reduction Glucose” value was found to be 52.4%. The “% Reduction Triglyceride” value in experiment [2] (plasma triglyceride vs control group) worked out at 49.6%.
